Results reported in DBAASP.
≈ marks a conversion by molar mass, not a printed value. Where “and” joins values, the source holds several entries; their conditions need not be identical. Equal entries are not always repeated. Values belong to the molecule of their own block, whether it stands above or below them.

Columns and labels:
Test in all cases: ≥ marks a high value that may be exact or a test limit, other limits are often not marked, values filed in µg/mL are converted to µM
[1] = system: Staphylococcus aureus CGMCC 1.8721
[2] = system: Klebsiella pneumoniae CGMCC 1.1736
[3] = system: Prevotella melaninogenica
[4] = system: Enterococcus faecalis ATCC 29212
[5] = system: Proteus mirabilis ATCC 25933
[6] = system: Klebsiella pneumoniae KK3 9904
[7] = system: Pseudomonas aeruginosa ATCC 27853
[8] = system: Staphylococcus aureus T7/5
Cutibacterium acnes = system: Cutibacterium acnes
[9] = system: Clostridium tertium ATCC 19465
Clostridium septicum = system: Clostridium septicum
[10] = system: Pseudomonas aeruginosa CGMCC 1.2421
[11] = system: Staphylococcus aureus NCTC 8325
Fusobacterium nucleatum = system: Fusobacterium nucleatum
[12] = system: Staphylococcus epidermidis CGMCC 1.4260
[13] = system: Staphylococcus aureus T58/7
[14] = system: Staphylococcus epidermidis RP62A
[15] = system: Bacteroides fragilis ATCC 25285
[16] = system: Staphylococcus aureus T27/9
[17] = system: Escherichia coli CGMCC 1.8732
[18] = system: Peptostreptococcus anaerobius
[19] = system: Batrachochytrium dendrobatidis
[20] = system: Clostridium perfringens ATCC 10543
Bacteroides fragilis = system: Bacteroides fragilis
[21] = system: Cutibacterium acnes ATCC 11828
[22] = system: Candida albicans ATCC 90028
Acinetobacter baumannii = system: Acinetobacter baumannii
[23] = system: Salmonella enterica subsp. enterica serovar Typhimurium LT2
[24] = system: Escherichia coli ATCC 25922
[25] = system: Enterobacter cloacae HNTCC 53001
[26] = system: Peptoniphilus asaccharolyticus ATCC 29743
[27] = system: Fusobacterium varium ATCC 27725
[28] = system: Bacillus subtilis CGMCC 1.3376
Escherichia coli W3110 = system: Escherichia coli W3110
[29] = system: Streptococcus sanguinis NY101
Staphylococcus aureus = system: Staphylococcus aureus
Enterococcus faecalis = system: Enterococcus faecalis
[30] = system: Pseudomonas aeruginosa PAK
[31] = system: Streptococcus mutans UA159
[32] = system: Streptococcus sobrinus ATCC 33478
[33] = system: Staphylococcus aureus 930918-3
[34] = system: Pseudomonas aeruginosa MR3007
[35] = system: Staphylococcus aureus ATCC 33591
[36] = system: Acinetobacter baumannii ATCC 19606
[37] = system: Escherichia coli ATCC 23716
[38] = system: Staphylococcus aureus SA113
[39] = system: Brucella abortus 9.49 (per-)
[40] = system: Staphylococcus aureus ATCC 43300
Yersinia pestis KIM pYV = system: Yersinia pestis KIM pYV
[41] = system: Pseudomonas aeruginosa CUN 4158-02
[42] = system: Bordetella bronchiseptica CUN 11844-99

- MIC [1]: 6.25 µM (≈ 14.9 µg/mL)
- MIC [2]: 12.5 µM (≈ 29.9 µg/mL)
- MIC [3]: 3 µM (≈ 7.18 µg/mL)
- MIC [4]: 6 µM (≈ 14.4 µg/mL)
- MIC [5]: ≥ 100 µM
- MIC [6]: ≥ 50 µM
- MIC [7]: 25 µM (≈ 59.8 µg/mL)
- MIC [8]: 2.5 µM (≈ 5.98 µg/mL)
- MIC (Cutibacterium acnes): 25 µM (≈ 59.8 µg/mL)
- MIC [9]: 12.5 µM (≈ 29.9 µg/mL)
- MIC (Clostridium septicum): 12.5 µM (≈ 29.9 µg/mL)
- MIC [10]: 12.5 µM (≈ 29.9 µg/mL)
- MIC [11]: 3.5 µM and 6 µM
- MIC (Fusobacterium nucleatum): ≥ 50 µM
- MIC [12]: 3.13 µM (≈ 7.49 µg/mL)
- MIC [13]: 20 µM (≈ 47.8 µg/mL)
- MIC [14]: 3 µM (≈ 7.18 µg/mL)
- MIC [15]: ≥ 50 µM
- MIC [16]: 5 µM (≈ 12 µg/mL)
- MIC [17]: 25 µM (≈ 59.8 µg/mL)
- MIC [18]: 25 µM (≈ 59.8 µg/mL)
- MIC [19]: 25 µM (≈ 59.8 µg/mL)
- MIC [20]: ≥ 50 µM
- MIC (Bacteroides fragilis): ≥ 50 µM
- MIC [21]: 12.5 µM (≈ 29.9 µg/mL)
- MIC [22]: 19 µM and 12.5 µM
- MIC (Acinetobacter baumannii): 12.5 µM (≈ 29.9 µg/mL)
- MIC [23]: ≥ 50 µM
- MIC [24]: 20 µM and 12.5 µM
- MIC [25]: 12.5 µM (≈ 29.9 µg/mL)
- MIC [26]: ≥ 50 µM
- MIC [27]: ≥ 50 µM
- MIC [28]: 3.13 µM (≈ 7.49 µg/mL)
SMILES: CC[C@H](C)[C@H](NC(=O)[C@H](C)N)C(=O)NCC(=O)N[C@@H](CO)C(=O)N[C@H](C(=O)N[C@@H](CC(C)C)C(=O)NCC(=O)N[C@@H](C)C(=O)N[C@@H](CC(C)C)C(=O)N[C@@H](C)C(=O)N[C@@H](CCCCN)C(=O)NCC(=O)N[C@@H](CC(C)C)C(=O)N1CCC[C@H]1C(=O)N[C@H](C(=O)N[C@@H](CC(C)C)C(=O)N[C@H](C(=O)N[C@@H](CO)C(=O)N[C@@H](Cc1c[nH]c2ccccc12)C(=O)N[C@H](C(=O)N[C@@H](CCCCN)C(=O)N[C@@H](CC(N)=O)C(=O)N[C@@H](CCCN=C(N)N)C(N)=O)[C@@H](C)CC)[C@@H](C)CC)[C@@H](C)O)[C@@H](C)CC [AIGSILGALAKGLPTLISWIKNR]

- MIC (Escherichia coli W3110): ≥ 48.7 µM
- MIC [29]: 24.3 µM (≈ 62.5 µg/mL)
- MIC (Staphylococcus aureus): > 195 µM
- MIC (Enterococcus faecalis): ≥ 97.4 µM
- MIC [30]: ≥ 48.7 µM
- MIC [31]: 12.5 µM (≈ 32 µg/mL)
- MIC [32]: 24.3 µM (≈ 62.5 µg/mL)
SMILES: CC[C@H](C)[C@H](NC(=O)[C@H](Cc1ccccc1)NC(=O)[C@H](Cc1cnc[nH]1)NC(=O)[C@H](CCCCN)NC(=O)[C@@H](NC(=O)[C@H](Cc1ccccc1)NC(=O)[C@@H]1CCCN1C(=O)[C@H](Cc1ccc(O)cc1)NC(=O)[C@@H]1CCCN1C(=O)[C@H](Cc1ccccc1)NC(=O)[C@H](Cc1cnc[nH]1)NC(=O)[C@H](CC(C)C)NC(=O)[C@H](Cc1cnc[nH]1)NC(=O)[C@H](Cc1ccccc1)NC(=O)[C@H](Cc1cnc[nH]1)NC(=O)[C@@H](N)Cc1ccccc1)[C@@H](C)CC)C(=O)N[C@@H](Cc1cnc[nH]1)C(=O)N[C@@H](CCCN=C(N)N)C(=O)N[C@@H](Cc1ccccc1)C(N)=O [FHFHLHFPYPFIKHFIHRF]

- MIC [33]: ≥ 143 µM
- MIC [34]: ≥ 143 µM
- MIC [35]: ≥ 143 µM
SMILES: CC[C@H](C)[C@H](NC(=O)[C@H](CCCCN)NC(=O)[C@H](CCCCN)NC(=O)[C@H](CC(C)C)NC(=O)[C@H](CCCCN)NC(=O)[C@H](CCC(=O)O)NC(=O)[C@H](CCCCN)NC(=O)[C@@H](NC(=O)[C@@H](N)CCCCN)[C@@H](C)CC)C(=O)NCC(=O)N[C@@H](CCC(N)=O)C(=O)N[C@@H](CCCCN)C(=O)N[C@H](C(=O)N[C@@H](CCC(N)=O)C(=O)NCC(=O)O)[C@@H](C)CC [KIKEKLKKIGQKIQG]

SMILES: CC[C@H](C)[C@H](NC(=O)[C@H](CCCCN)NC(=O)[C@H](CCCCN)NC(=O)[C@H](CO)NC(=O)[C@@H](NC(=O)CNC(=O)[C@H](CCCN=C(N)N)NC(=O)[C@H](CC(C)C)NC(=O)[C@@H](NC(=O)[C@@H](N)CCCCN)[C@@H](C)CC)C(C)C)C(=O)N[C@@H](CCSC)C(=O)N[C@@H](CCCN=C(N)N)C(=O)N[C@@H](CCCN=C(N)N)C(=O)N[C@H](C(=O)N[C@@H](CO)C(=O)N[C@@H](CCCCN)C(=O)N[C@@H](CC(=O)O)C(=O)N[C@H](C(=O)N[C@@H](CC(C)C)C(=O)N[C@H](C(=O)NCC(=O)N[C@@H](CCCCN)C(=O)N[C@@H](CCCCN)C(N)=O)[C@@H](C)O)[C@@H](C)CC)[C@@H](C)CC [KILRGVSKKIMRRISKDILTGKK]
- MIC [36]: 3 µM (≈ 8 µg/mL)
- MIC [37]: 5.99 µM and 4.68 µM
- MIC [38]: ≥ 95.9 µM
- MIC [39]: 1.5 µM (≈ 4 µg/mL)
- MIC (Staphylococcus aureus): 24 µM and 48 µM
- MIC [40]: > 95.9 µM
- MIC (Yersinia pestis KIM pYV): ≥ 48 µM
- MIC [41]: 5.99 µM (≈ 16 µg/mL)
- MIC [42]: 0.375 µM (≈ 1 µg/mL)
- MIC [24]: 5.99 µM (≈ 16 µg/mL)
